Series [1] in a line: Glutathione conjugate formation in rat liver cytosol incubations. It is filed as in vitro ADME. How it is done: (§1) Assay for Glutathione Conjugate formation in Rat or Human Cytosol Incubations Compound A and Compound 1 were incubated at a concentration of 10 μM with rat or human liver cytosol (3-5 mg/mL) (male Sprague-Dawley rat liver cytosol, lot BIM, n=100 purchased from Bioreclamation IVT, or mixed gender pool, lot 452115, n=150 purchased from Corning) in 1 mL of potassium phosphate buffer (50 mM, pH 8.5). The reactions (n=2, total volume=1000 μL) were initiated by the addition of glutathione (GSH) (5 mM) and incubated at 37° C. in a thermomixer. At 0 and 60 min, aliquots (100 μL) of the reaction mixtures were collected, and reactions were terminated by adding two volumes of acetonitrile. Proteins were then removed using a Millipore Sigma (Massachusetts, BA) Multiscreen Solvinert filter plate, by centrifugation (Eppendorf 5810 R, Hamburg, Germany) at 2000 rpm for 5 min. The filtrate was collected in a 96-well plate and was analyzed by high resolution Velos LTQ-Orbitrap (LC-UV/MS) system. UV absorbance was collected from 220-600 nm. […] The degrees of formation of GSH conjugates from the two compounds is shown below. Entries represent UV peak areas calculated relative to the parent compound at 260-280 nm. Data in parentheses represent the averages of the two experiments.

Series [2] is described as follows: Glutathione conjugate formation in human liver cytosol incubations. It counts as in vitro ADME. Particulars: 10 μM compound, 5 mM GSH, 37° C., 60 min; UV peak area relative to parent at 260-280 nm; n=2. How it is done:
as §1

Take `C[C@H]1C[C@H](C(=O)O)CC[C@H]1C(=O)N1CC[C@@]2(S(=O)(=O)c3ccccc3)c3cc(F)c(C(F)(C(F)(F)F)C(F)(F)F)cc3CC[C@@H]12` [Compound 1, (1R,3S,4R)-4-((3aR,9bR)-8-fluoro-7-(perfluoropropan-2-yl)-9b-(phenylsulfonyl)-2,3,3a,4,5,9b-hexahydro-1H-benzo[e]indole-3-carbonyl)-3-methylcyclohexane-1-carboxylic acid]: in series [1] (10 μM compound, 5 mM GSH, 37° C., 60 min, UV peak area relative to parent at 260-280 nm, n=2), the “GSH conjugate, Rat Cytosol UV Area (%), individual experiments” value was “not detected”. Moreover, the “GSH adduct formation (statement in words)” value in series [1] (based on in vitro experiments (rat or human cytosol, not given)) was “did not form a GSH adduct”. Further, in series [2], the “GSH conjugate, Human Cytosol UV Area (%), individual experiments” value was “not detected”.

Source of the values: patent US10633339B2, “Tricyclic sulfone compound as a ROR gamma modulator” (BRISTOL-MYERS SQUIBB COMPANY, priority 2018, dated 2020).
